Laboratory results reported in patent US5869450A, “Anti-inflammatory compositions and method with corticotropin-releasing factor analogs” (priority 1996, dated 1999).
Non-standard residues stand in square brackets, D forms with d. No end group written: not given here.

Tests used:
[1] = target: T1, CRF-R1 (Rattus norvegicus, UniProt P35353); test: cAMP stimulation in 293-EBNA cells transfected with CRF-R1 (PC-CRF receptor); assay type: cell-based; settings: for EC50: Table 2, cAMP, 293-EBNA stable transfectants
T1 construct: Cells were transfected with the full-length cDNA of these receptors; expressed in transfected cells
T1 sequence (P35353 24-415): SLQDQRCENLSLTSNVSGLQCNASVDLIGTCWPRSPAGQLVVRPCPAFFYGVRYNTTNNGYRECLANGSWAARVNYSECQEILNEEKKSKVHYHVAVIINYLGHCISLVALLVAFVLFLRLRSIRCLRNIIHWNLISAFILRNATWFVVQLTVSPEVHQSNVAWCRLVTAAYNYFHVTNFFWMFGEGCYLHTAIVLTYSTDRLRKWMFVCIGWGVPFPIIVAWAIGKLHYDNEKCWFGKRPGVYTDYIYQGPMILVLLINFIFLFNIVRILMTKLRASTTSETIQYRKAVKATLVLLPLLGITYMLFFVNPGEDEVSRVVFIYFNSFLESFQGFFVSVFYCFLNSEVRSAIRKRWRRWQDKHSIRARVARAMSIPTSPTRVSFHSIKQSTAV
Protocol: These were the pituitary-central nervous system (PC)-CRF receptor and the heart muscle (HM)-CRF receptor, also called CRF-R1 and CRF-R2β. Cells were transfected with the full-length cDNA of these receptors. […] Stable transfectants were incubated with 50 μM 3-isobutylmethyl-1-methylxanthine for 20 minutes at 37° C. and then peptides were added and incubated for another 20 minutes at 37° C. Levels of cAMP were assayed in sextuplicate. Cells transfected with these CRF receptors are sensitive to the cAMP stimulatory effects of CRF.

[2] = target: T2, CRF-R2β (Mus musculus, UniProt Q60748); test: cAMP stimulation in 293-EBNA cells transfected with CRF-R2β (HM-CRF receptor); assay type: cell-based; settings: Table 2; for EC50: cAMP, 293-EBNA stable transfectants
T2 construct: Cells were transfected with the full-length cDNA of these receptors; expressed in transfected cells
Protocol: For another assay, two types of cloned CRF receptors were assessed for their responses to the CRF analogs. These were the pituitary-central nervous system (PC)-CRF receptor and the heart muscle (HM)-CRF receptor, also called CRF-R1 and CRF-R2β. Cells were transfected with the full-length cDNA of these receptors. These procedures were performed according to Chang et al., Neuron, 11, pp. 1187-1195 (1993) and Kishimoto et al., Proc. Natl. Acad. Sci. USA, 92, pp. 1108 (1995). cDNAS for the PC-CRF receptor and the HM-CRF receptor were subcloned into expression vector pCEP4 and transfected into 293-EBNA cells. Stable transfectants were incubated with 50 μM 3-isobutylmethyl-1-methylxanthine for 20 minutes at 37° C. and then peptides were added and incubated for another 20 minutes at 37° C. Levels of cAMP were assayed in sextuplicate. Cells transfected with these CRF receptors are sensitive to the cAMP stimulatory effects of CRF. […] As noted previously, the anti-inflammatory potency of these two analogs were also identical.

[3] = test system: ACTH release; test: Relative ACTH-releasing potency of singly D-substituted ovine CRF analogs (FIG. 1); settings: relative to unmodified oCRF
Description: Turning to FIG. 1, 37 different ovine CRF analogs were singly substituted with a D-amino acid and screened for suppression of heat-induced edema and relative ACTH-releasing potency. […]

[4] = test system: heat-induced edema; settings: intravenous; Wei and Kiang 1989; cited from earlier work
[5] = test system: heat-induced edema; test: Suppression of heat-induced edema in the anesthetized rat hind paw; assay type: in vivo
Protocol: The index of anti-inflammatory activity was measured as suppression by heat-induced edema. Briefly, male Sprague-Dawley rats weighing 200-250 g were anesthetized with sodium pentobarbital (60 mg/kg i.p.). Saline (1 ml/kg body weight) or test substances dissolved in saline were injected i.v. via a branch of the femoral vein. Ten minutes after injection, thermal stimulus was applied to the hind paw by immersion of the foot, up to the ankle joint, in 58° C. water for 1 minute. Thirty minutes after heat exposure, animals were killed by overdose with concentrated sodium pentobarbital and both hind paws were removed at the ankle joint and weighed. The degree of heat-induced edema was estimated as the difference between the weights of the heated and unheated paws divided by the weight of the unheated paw. Four to six analogs (N≥3 animals per dose level with 3 to 4 dose levels per analog) were tested on each occasion with concurrent saline controls. The median effective dose (ED50) was calculated according to the method of Litchfield and Wilcoxon (1949).

[6] = target: T3, CRF binding protein (Homo sapiens, UniProt P24387); test: Complex formation of I125-labelled peptide with CRF-binding protein, Sephadex G100 column; settings: radio-iodinated peptide, Sephadex G100 fractions
T3 sequence (P24387 25-322): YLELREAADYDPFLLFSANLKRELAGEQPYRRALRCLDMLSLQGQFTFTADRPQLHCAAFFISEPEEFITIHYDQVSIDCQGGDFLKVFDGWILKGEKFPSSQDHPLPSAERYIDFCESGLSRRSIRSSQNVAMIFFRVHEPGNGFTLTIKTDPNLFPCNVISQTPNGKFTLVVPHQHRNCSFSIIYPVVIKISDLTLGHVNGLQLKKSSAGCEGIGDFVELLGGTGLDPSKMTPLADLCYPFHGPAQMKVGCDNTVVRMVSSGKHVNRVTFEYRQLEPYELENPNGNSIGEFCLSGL
Protocol: Both peptides were radio-iodinated with I^125, incubated with CRF-binding protein, placed on a Sephadex G100 column and the fractions collected.

[7] = test system: rat pituitary cells; test: In vitro ACTH release from rat pituitary segments, radioimmunoassay (FIG. 2); assay type: cell-based; settings: ir-ACTH
Protocol: In determining ACTH release, an useful assay system to measure ACTH release by an in vitro assay is where basal or CRF-induced ACTH release is measured in the manner described by Vale et al. ("Assay of Corticotropin Releasing Factor," Methods in Enzymology: Neuroendocrine Peptides, 103, pp. 565-577, Conn. Ed., Academic Press, New York, 1983). The results shown in FIG. 2 were obtained by incubating the test peptides with segments of rat pituitary cells. After incubation the ACTH in the fluid bathing these segments were measured by radioimmunoassay (ir-ACTH) in units of pg of ACTH per mg of pituitary tissue. […] After the addition of CRF, this is increased in a dose-dependent relationship. […] However, the anti-edema potencies between these two peptides were identical.

[8] = i.v. 10 min before 58° C. water for 1 minute, paw weight 30 min after heat, 95% CL in brackets

T2 sequence (Q60748 1-431 isoform Q60748-2): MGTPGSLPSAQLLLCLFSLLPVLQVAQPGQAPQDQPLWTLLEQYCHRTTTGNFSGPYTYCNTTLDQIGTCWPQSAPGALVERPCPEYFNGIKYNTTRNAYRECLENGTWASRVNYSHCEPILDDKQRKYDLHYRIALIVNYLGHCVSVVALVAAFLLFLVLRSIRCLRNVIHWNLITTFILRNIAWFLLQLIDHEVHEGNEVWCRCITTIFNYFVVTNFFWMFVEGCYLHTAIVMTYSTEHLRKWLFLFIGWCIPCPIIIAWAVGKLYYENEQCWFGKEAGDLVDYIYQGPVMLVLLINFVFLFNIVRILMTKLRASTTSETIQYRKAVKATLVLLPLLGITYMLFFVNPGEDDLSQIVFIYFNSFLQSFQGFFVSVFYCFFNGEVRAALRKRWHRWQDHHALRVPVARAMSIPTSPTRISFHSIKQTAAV

## CC[C@H](C)[C@H](NC(=O)[C@H](CO)NC(=O)[C@H](CC(C)C)NC(=O)[C@H]1CCCN1C(=O)[C@@H]1CCCN1C(=O)[C@H](CC(=O)O)NC(=O)[C@@H](N)CC(=O)O)C(=O)N[C@@H](CC(=O)O)C(=O)N[C@@H](CC(C)C)C(=O)N[C@H](C(=O)N[C@@H](Cc1ccccc1)C(=O)N[C@@H](Cc1c[nH]cn1)C(=O)N[C@@H](CC(C)C)C(=O)N[C@@H](CC(C)C)C(=O)N[C@@H](CCCNC(=N)N)C(=O)N[C@H](C(=O)N[C@@H](CC(C)C)C(=O)N[C@@H](CC(C)C)C(=O)N[C@@H](CCC(=O)O)C(=O)N[C@@H](CC(C)C)C(=O)N[C@@H](C)C(=O)N[C@@H](CCCNC(=N)N)C(=O)N[C@H](C(=O)N[C@@H](CCC(N)=O)C(=O)N[C@@H](CO)C(=O)N[C@@H](CCC(N)=O)C(=O)N[C@@H](CCCNC(=N)N)C(=O)N[C@@H](CCC(=O)O)C(=O)N[C@@H](CCCNC(=N)N)C(=O)N[C@@H](C)C(=O)N[C@@H](CCC(=O)O)C(=O)N[C@@H](CCC(N)=O)C(=O)N[C@@H](CC(N)=O)C(=O)N[C@@H](CCCNC(=N)N)C(=O)N[C@H](C(=O)N[C@H](C(=O)N[C@@H](Cc1ccccc1)C(=O)N[C@@H](CC(=O)O)C(=O)N[C@@H](CO)C(=O)N[C@H](C(N)=O)C(C)C)[C@@H](C)CC)[C@@H](C)CC)[C@@H](C)O)[C@@H](C)O)[C@@H](C)O [[D-Pro^4]urocortin (rat)]
[1]
  EC50: 0.2 nM
[2]; D-substituted analog versus parent peptide
  Increment in Selectivity: 2.5 fold
[2]
  EC50: 1 nM

## CC[C@H](C)[C@H](NC(=O)[C@H](CC(=O)O)NC(=O)[C@H](CC(C)C)NC(=O)[C@H](CC(C)C)NC(=O)[C@H](CCCCN)NC(=O)[C@H](CCCNC(=N)N)NC(=O)[C@H](CC(N)=O)NC(=O)[C@H](CO)NC(=O)[C@H](Cc1c[nH]cn1)NC(=O)[C@H](C)NC(=O)[C@H](CCC(N)=O)NC(=O)[C@H](CCC(N)=O)NC(=O)[C@H](C)NC(=O)[C@H](CC(C)C)NC(=O)[C@H](CCC(N)=O)NC(=O)[C@H](CC(=O)O)NC(=O)[C@H](C)NC(=O)[C@H](CCCCN)NC(=O)[C@@H](NC(=O)[C@H](CCSC)NC(=O)[C@H](CCC(=O)O)NC(=O)[C@H](CC(C)C)NC(=O)[C@@H](NC(=O)[C@H](CCC(=O)O)NC(=O)[C@H](CCCNC(=N)N)NC(=O)[C@H](CC(C)C)NC(=O)[C@H](CC(C)C)NC(=O)[C@H](Cc1c[nH]cn1)NC(=O)[C@H](Cc1ccccc1)NC(=O)[C@@H](NC(=O)[C@H](CC(C)C)NC(=O)[C@H](CC(=O)O)NC(=O)[C@H](CC(C)C)NC(=O)[C@H](CO)NC(=O)[C@@H](NC(=O)[C@H]1CCCN1C(=O)[C@@H]1CCCN1C(=O)[C@H](CCC(=O)O)NC(=O)[C@H](CCC(N)=O)NC(=O)[C@@H](N)CO)[C@@H](C)CC)[C@@H](C)O)C(C)C)[C@@H](C)O)C(=O)N[C@@H](C)C(N)=O [[D-Pro^5]oCRF]
[3]
  ACTH-releasing potency retained relative to the unmodified peptide: 8%

## CC[C@H](C)[C@H](NC(=O)[C@@H](NC(=O)[C@H](CC(=O)O)NC(=O)[C@H](CC(C)C)NC(=O)[C@H](CC(C)C)NC(=O)[C@H](CC(C)C)NC(=O)[C@H](CCCNC(=N)N)NC(=O)[C@H](CC(N)=O)NC(=O)[C@H](CC(N)=O)NC(=O)[C@H](C)NC(=O)[C@H](C)NC(=O)[C@H](CCC(N)=O)NC(=O)[C@H](CCC(N)=O)NC(=O)[C@H](CCCCN)NC(=O)[C@H](CCC(=O)O)NC(=O)[C@H](CCCCN)NC(=O)[C@H](CCC(=O)O)NC(=O)[C@H](CCC(N)=O)NC(=O)[C@H](CCCCN)NC(=O)[C@H](CCC(=O)O)NC(=O)[C@@H](NC(=O)[C@H](CCC(=O)O)NC(=O)[C@@H](NC(=O)[C@H](CCSC)NC(=O)[C@H](CCCCN)NC(=O)[C@H](CCCNC(=N)N)NC(=O)[C@H](CC(C)C)NC(=O)[C@H](CC(C)C)NC(=O)[C@H](CCC(=O)O)NC(=O)[C@H](CC(C)C)NC(=O)[C@H](CO)NC(=O)[C@H](CC(C)C)NC(=O)[C@H](CC(=O)O)NC(=O)[C@@H](NC(=O)[C@H](CO)NC(=O)[C@@H](NC(=O)[C@@H]1CCCN1C(=O)[C@@H]1CCCN1C(=O)CNC(=O)[C@@H]1CCC(=O)N1)[C@@H](C)CC)[C@@H](C)CC)[C@@H](C)CC)[C@@H](C)CC)[C@@H](C)O)C(N)=O [sauvagine]
[4]
  ED50 for suppression of heat-induced edema in the rat: 0.44 nmol/kg

## CC[C@H](C)[C@H](NC(=O)[C@H](CO)NC(=O)[C@H](CC(C)C)NC(=O)[C@@H]1CCCN1C(=O)[C@@H]1CCCN1C(=O)[C@H](CC(=O)O)NC(=O)[C@@H](N)CC(=O)O)C(=O)N[C@@H](CC(=O)O)C(=O)N[C@@H](CC(C)C)C(=O)N[C@H](C(=O)N[C@@H](Cc1ccccc1)C(=O)N[C@@H](Cc1c[nH]cn1)C(=O)N[C@@H](CC(C)C)C(=O)N[C@@H](CC(C)C)C(=O)N[C@@H](CCCNC(=N)N)C(=O)N[C@H](C(=O)N[C@@H](CC(C)C)C(=O)N[C@@H](CC(C)C)C(=O)N[C@@H](CCC(=O)O)C(=O)N[C@@H](CC(C)C)C(=O)N[C@@H](C)C(=O)N[C@@H](CCCNC(=N)N)C(=O)N[C@H](C(=O)N[C@@H](CCC(N)=O)C(=O)N[C@@H](CO)C(=O)N[C@@H](CCC(N)=O)C(=O)N[C@@H](CCCNC(=N)N)C(=O)N[C@@H](CCC(=O)O)C(=O)N[C@@H](CCCNC(=N)N)C(=O)N[C@@H](C)C(=O)N[C@@H](CCC(=O)O)C(=O)N[C@@H](CCC(N)=O)C(=O)N[C@@H](CC(N)=O)C(=O)N[C@@H](CCCNC(=N)N)C(=O)N[C@H](C(=O)N[C@H](C(=O)N[C@@H](Cc1ccccc1)C(=O)N[C@@H](CC(=O)O)C(=O)N[C@@H](CO)C(=O)N[C@H](C(N)=O)C(C)C)[C@@H](C)CC)[C@@H](C)CC)[C@@H](C)O)[C@@H](C)O)[C@@H](C)O [urocortin (rat), reference compound]
[1]
  EC50: 0.15 nM
[2]
  EC50: 0.32 nM

## NDDPPISIDLTFHLLRNMIEMARIENEREQAGLNRKYLDEV-NH2 (C-terminus assumed) [white sucker fish urotensin I]
[4]
  ED50 for suppression of heat-induced edema in the rat: 1.5 nmol/kg

## NDDP[dP]ISIDLTFHLLRNMIEMARIENEREQAGLNRKYLDEV-NH2 [[D-Pro^5]white sucker fish urotensin I]
[5]; [8]
  ED50 (95% CL) μg/kg i.v.: 9 (5-17) μg/kg

## SEEP[dP]ISLDLTFHLLREVLEMTKADQLAQQAHSNRKLMEII-NH2 [[D-Pro^5, Thr^22, Lys^23, Asp^25]h/rCRF]
[6]
  complex formation with CRF-binding protein: did not form a complex with binding protein
[5]; Table 3, i.v.
  ED50 (95% CL) μg/kg i.v.: 19 µg/kg
[5]; [8]
  ED50 (95% CL) μg/kg i.v.: 19 (9-38) μg/kg

## [D-Pro^5 ] human/rat CRF [[D-Pro^5]h/rCRF]
[6]
  complex formation with CRF-binding protein: formed a complex with binding protein
[1]; FIG. 3, versus h/rCRF
  change of potency for CRF-R1 after replacement of Pro5 by D-Pro: reduced by about six-fold
[7]
  decrease of potency for ACTH release versus CRF: at least 10 fold
[5]; Table 3, i.v.
  ED50 (95% CL) μg/kg i.v.: 10 µg/kg
[5]; [8]
  ED50 (95% CL) μg/kg i.v.: 10 (3-33) μg/kg
